One assay addresses T1, human ETA receptors (Homo sapiens, UniProt P25101).
T1 construct: endogenous in cells; host or cells: TE 671 cells (ATCC HTB 139), membrane preparation
T1 sequence (P25101 21-427): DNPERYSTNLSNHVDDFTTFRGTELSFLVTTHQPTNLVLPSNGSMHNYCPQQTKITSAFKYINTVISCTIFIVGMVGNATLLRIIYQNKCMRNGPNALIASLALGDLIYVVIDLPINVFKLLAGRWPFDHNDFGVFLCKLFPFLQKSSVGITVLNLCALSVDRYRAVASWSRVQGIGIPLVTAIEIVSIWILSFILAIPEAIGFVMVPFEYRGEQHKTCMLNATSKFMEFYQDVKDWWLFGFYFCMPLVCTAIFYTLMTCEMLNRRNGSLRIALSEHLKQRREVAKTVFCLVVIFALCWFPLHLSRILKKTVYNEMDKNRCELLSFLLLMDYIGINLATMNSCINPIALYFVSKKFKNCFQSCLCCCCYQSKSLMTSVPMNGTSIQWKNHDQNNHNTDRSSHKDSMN
In words: Endothelin binding inhibition, Binding Test #1: competition with 125I-ET-1 for ETA receptors on TE 671 cell membranes. As for the experimental part: (§1) Cells from multiple flasks were collected by scraping, pooled and centrifuged for 10 min at 190×g. The cells were resuspended in phosphate buffered saline (PBS) containing 10 mM EDTA using a Tenbroeck homogenizer. The suspension was centrifuged at 4° C. at 57,800×g for 15 min, the pellet was resuspended in 5 mL of buffer A (5 mM HEPES buffer, pH 7.4 containing aprotinin (100 KIU/mL)) and then frozen and thawed once. 5 mL of Buffer B (5 mM HEPES Buffer, pH 7.4 containing 10 mM MnCl2 and 0.001% deoxyribonuclease Type 1) was added, the suspension mixed by inversion and then incubated at 37° C. for 30 minutes. The mixture was centrifuged at 57,800×g as described above, the pellet washed twice with buffer A and then resuspended in buffer C (30 mM HEPES buffer, pH 7.4 containing aprotinin (100 KIU/mL) to give a final protein concentration of 2 mg/mL and stored at −70° C. until use.
The membrane suspension (50 μL), containing up to 8 μg of membrane protein, was added to each of (A), (B), or (C). […] Alternatively, the incubation was conducted at 24° C.
The supernatant, containing unbound radioactivity, was decanted and the pellet counted on a Genesys multiwell gamma counter. The degree of inhibition of binding (D) was calculated according to the following equation: [formula]
Each test was generally performed in triplicate.

The target of a further assay is T2, human ETB receptor (Homo sapiens, UniProt P24530).
T2 construct: expressed in transfected cells; host or cells: COS7 cells
T2 sequence (P24530 27-442): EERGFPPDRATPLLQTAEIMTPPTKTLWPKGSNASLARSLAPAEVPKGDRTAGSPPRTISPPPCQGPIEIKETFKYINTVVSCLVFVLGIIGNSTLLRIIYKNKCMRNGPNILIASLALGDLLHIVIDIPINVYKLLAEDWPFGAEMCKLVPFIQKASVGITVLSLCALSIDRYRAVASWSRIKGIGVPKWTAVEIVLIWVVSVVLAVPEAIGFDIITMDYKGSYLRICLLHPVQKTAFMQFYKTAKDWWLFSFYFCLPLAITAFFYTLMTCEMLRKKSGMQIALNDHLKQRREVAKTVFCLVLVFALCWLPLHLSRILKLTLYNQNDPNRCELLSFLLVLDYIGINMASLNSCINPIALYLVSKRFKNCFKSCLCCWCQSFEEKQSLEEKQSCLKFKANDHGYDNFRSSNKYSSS
In words: Endothelin binding inhibition, Binding Test #2: competition with 125I-ET-1 for ETB receptors on transfected COS7 cell membranes.
Source text: Compounds that are potential endothelin antagonists are identified by testing their ability to compete with ^125I-labeled ET-1 for binding to human ETA receptors or ETB receptors present on isolated cell membranes. The effectiveness of the test compound as an antagonist or agonist of the biological tissue response of endothelin can also be assessed by measuring the effect on endothelin induced contraction of isolated rat thoracic aortic rings. The ability of the compounds to act as antagonists or agonists for ETB receptors can be assess by testing the ability of the compounds are to inhibit endothelin-1 induced prostacyclin release from cultured bovine aortic endothelial cells.
COS7 cells were transfected with DNA encoding the ETB receptor, The resulting cells, which express the human ETB receptor, were grown to confluence in T-150 flasks. Membrane was prepared as described above. The binding assay was performed as described above using the membrane preparation diluted with binding buffer to a concentration of 1 μg/50 μL.
as §1, with “Briefly, the COS7 cells, described above, that had been transfected with DNA encoding the ETB receptor and express the human ETB receptor on their surfaces were grown to confluence in T-175 flasks. Cells” for “Cells”, “C.” for “C. at”, “once. Five” for “once. 5”, “2 mg/mL.” for “2 mg/mL and stored at −70° C. until use.”
The binding assay was performed as described above using the membrane preparation diluted to give 1 μg/50 μL of binding buffer.

[1] abbreviates: incubation at 4° C. (values without †).
Where [2] appears, read: incubation at 24° C. (values marked †).

pIC50: −log10 of the molar value. “And” between values parts separate entries of the source, which are not always exact repeats. Equal values may be shown once. Where a name gives a salt, the structure may show the parent alone.

For orientation: pIC50 means the negative decadic logarithm of the IC50, by convention in mol/L. Consider `Cc1noc(NS(=O)(=O)c2ccsc2CO)c1Br` [N-(4-bromo-3-methyl-5-isoxazolyl)-2-(hydroxymethyl)thiophene-3-sulfonamide], for which the negative logarithm of the IC50 (pIC50) on human ETA receptors (setting [1]) was 6.80; on human ETA receptors (setting [2]) it was 5.81; at human ETB receptor (setting [1]), 4.36.

Turning to `COc1ccc(CC(=O)c2sccc2S(=O)(=O)Nc2onc(C)c2Cl)cc1` [N-(4-chloro-3-methyl-5-isoxazolyl)-2-[(4-methoxyphenyl)acetyl]thiophene-3-sulfonamide], the values for the pIC50 on human ETA receptors (setting [2]) and on human ETB receptor (setting [2]) were 7.37 and 5.00, respectively.

Usually inhibition stands for the relative decrease from the control value, in per cent. Take `Cc1cc(C)c(OC(=O)c2sccc2S(=O)(=O)Nc2onc(C)c2C)c(C)c1` [N-(3,4-dimethyl-5-isoxazolyl)-2-[(2,4,6-trimethylphenoxy)carbonyl]thiophene-3-sulfonamide]: on human ETA receptors (setting [2]), the pIC50 is 6.27. Also, the inhibition at 100 µM at human ETB receptor (read-out: ETB % inhibition @ 100 μM, @ 100 μM, incubation at 24° C.) was 8%.

On to `Cc1cc(C)c(CNC(=O)c2sccc2S(=O)(=O)Nc2onc(C)c2Cl)c(C)c1` [N-(4-chloro-3-methyl-5-isoxazolyl)-2-(2,4,6-trimethylbenzylaminocarbonyl)thiophene-3-sulfonamide], for which, on human ETB receptor (setting [2]), the pIC50 is 4.16.

As to `Cc1cc(C)c(NC(=O)c2sccc2S(=O)(=O)Nc2onc(C)c2Cl)c(C(N)=O)c1` [N-(4-chloro-3-methyl-5-isoxazolyl)-2-(2-carbamoyl-4,6-dimethylphenylaminocarbonyl)thiophene-3-sulfonamide], at human ETB receptor (setting [2]), the pIC50 was 4.93.

At human ETA receptors (setting [2]), `Cc1noc(NS(=O)(=O)c2ccsc2C(=O)Nc2cc3c(cc2C(=O)O)OCO3)c1Cl` [N-(4-chloro-3-methyl-5-isoxazolyl)2-{[2-carboxyl-4,5-(methylenedioxy)phenyl]aminocarbonyl}thiophene-3-sulfonamide] gave a pIC50 of 5.84.

For the compound `Cc1noc(NS(=O)(=O)c2ccsc2C(=O)c2ccc3c(c2)OCO3)c1Br` [N-(4-bromo-3-methyl-5-isoxazolyl)-2-[(3,4-methylenedioxy)benzoyl]thiophene-3-sulfonamide], at human ETB receptor (setting [2]), the pIC50 is 4.82.

Consider `COc1cccc(-c2ccsc2S(=O)(=O)Nc2onc(C)c2Br)c1` [N-(4-bromo-3-methyl-5-isoxazolyl)-3-(3-methoxyphenyl)thiophene-2-sulfonamide], for which, on human ETA receptors (setting [2]), the pIC50 is 6.48.

As to `CC(=O)c1cc2c(cc1NC(=O)c1sccc1S(=O)(=O)Nc1onc(C)c1Cl)OCO2` [N-(4-chloro-3-methyl-5-isoxazolyl)2-{[2-acetyl-4,5-(methylenedioxy)phenyl]aminocarbonyl}thiophene-3-sulfonamide], at human ETB receptor (setting [2]), the pIC50 is 4.50.

For the compound `COC(=O)c1cc(OC)c(OC)cc1NC(=O)c1sccc1S(=O)(=O)Nc1onc(C)c1Cl` [N-(4-chloro-3-methyl-5-isoxazolyl)-2-[(4,5-dimethoxy-2-methoxycarbonylphenyl)aminocarbonyl]thiophene-3-sulfonamide], the pIC50 on human ETA receptors (setting [2]) was 6.26.

For the compound `Cc1noc(NS(=O)(=O)c2ccsc2CCc2ccc3c(c2)OCO3)c1Br` [N-(4-bromo-3-methyl-5-isoxazolyl)-2-[(3,4-methylenedioxy)phenethyl]thiophene-3-sulfonamide], the pIC50 at human ETA receptors (setting [2]) is 6.68.

For `COc1ccc(OC(=O)c2sccc2S(=O)(=O)Nc2onc(C)c2C)cc1` [N-(3,4-dimethyl-5-isoxazolyl)-2-[(4-methoxylphenoxy)carbonyl]thiophene-3-sulfonamide], at human ETA receptors (setting [2]), the pIC50 was 5.23 and 5.60.

For `Cc1cc(C)c(NC(=O)c2sccc2S(=O)(=O)Nc2onc(C)c2Cl)c(C)c1CN(C)C` [N-(4-chloro-3-methyl-5-isoxazolyl)-2-(3-dimethylaminomethyl-2,4,6-trimethylphenylaminocarbonyl)thiophene-3-sulfonamide, trifluoroacetic acid salt], the pIC50 at human ETA receptors (setting [2]) is 7.87.

Turning to `Cc1noc(NS(=O)(=O)c2ccsc2COc2ccc3c(c2)OCO3)c1Br` [N-(4-bromo-3-methyl-5-isoxazolyl)-2-{[3,4-(methylenedioxy)phenoxy]methyl}thiophene-3-sulfonamide], the pIC50 at human ETB receptor (setting [2]) was 5.18.

As to `Cc1noc(NS(=O)(=O)c2ccsc2C(=O)OC2CCOCC2)c1Cl` [N-(4-chloro-3-methyl-5-isoxazolyl)-2-[(4-oxacyclohexyl)oxycarbonyl]thiophene-3-sulfonamide], the pIC50 at human ETA receptors (setting [2]) is 5.86.

`Cc1ccc(OC(=O)c2sccc2S(=O)(=O)Nc2onc(C)c2Br)cc1` [N-(4-bromo-3-methyl-5-isoxazolyl)-2-[(4-methylphenoxy)carbonyl]thiophene-3-sulfonamide] had a pIC50 at human ETB receptor (setting [2]) of 5.01.

For `Cc1cc2c(cc1C(CC(=O)O)C(=O)c1sccc1S(=O)(=O)Nc1onc(C)c1Cl)OCO2` (stereo not drawn) [N-(4-chloro-3-methyl-5-isoxazolyl)-2-(α-carboxylmethyl-2-methyl-4,5-(methylenedioxy)phenylacetyl)thiophene-3-sulfonamide], on human ETA receptors (setting [2]), the negative logarithm of the IC50 (pIC50) is 7.09.

In the case of `CC(=O)c1cc2c(cc1NC(=O)c1sccc1S(=O)(=O)Nc1onc(C)c1C)OCO2` [N-(3,4-dimethyl-5-isoxazolyl)-2-{[2-acetyl-4,5-(methylenedioxy)phenyl]aminocarbonyl}thiophene-3-sulfonamide], the pIC50 on human ETA receptors (setting [2]) was 7.49.

Consider `Cc1noc(NS(=O)(=O)c2ccsc2C(N)=O)c1Br` [N-(4-bromo-3-methyl-5-isoxazolyl)-2-(aminocarbonyl)thiophene-3-sulfonamide], for which the pIC50 at human ETA receptors (setting [2]) was 6.08.

Take `Cc1nnc(NC(=O)c2sccc2S(=O)(=O)Nc2onc(C)c2Cl)s1` [N-(4-chloro-3-methyl-5-isoxazolyl)-2-[(2-methyl-1,3,4-thiadiazol-5-yl)aminocarbonyl]thiophene-3-sulfonamide]: the negative logarithm of the IC50 (pIC50) at human ETA receptors (setting [2]) was 6.89.

On to `Cc1cc2c(cc1C(C)C(=O)c1sccc1S(=O)(=O)Nc1onc(C)c1Cl)OCO2` (stereo not drawn) [N-(4-chloro-3-methyl-5-isoxazolyl)-2-(α-methyl-2-methyl-4,5-(methylenedioxy)phenylacetyl)thiophene-3-sulfonamide], for which the pIC50 at human ETA receptors (setting [2]) is 7.07.

In turn, `Cc1ccc(NC(=O)c2sccc2S(=O)(=O)Nc2onc(C)c2Cl)c(O)c1` [N-(4-chloro-3-methyl-5-isoxazolyl)-2-[2-hydroxy-4-methylphenyl)aminocarbonyl]thiophene-3-sulfonamide] showed a negative logarithm of the IC50 (pIC50) on human ETA receptors (setting [2]) of 8.22.

As to `Cc1noc(NS(=O)(=O)c2ccsc2C(=O)Oc2ccc3c(c2)OCO3)c1C` [N-(3,4-dimethyl-5-isoxazolyl)-2-[3,4-(methylenedioxy)phenoxycarbonyl]thiophene-3-sulfonamide], the pIC50 at human ETB receptor (setting [2]) was less than 4.30.

These data come from patent publication US6632829B2, “Sulfonamides and derivatives thereof that modulate the activity of endothelin” (Texas Biotechnology Corp., priority 1996, dated 2003).
